Source: PubChem BioAssay AID179 (DTP/NCI, 2004)
pEC50, pIC50: −log10 of the molar value. Activity calls are given as the source filed them.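 Rule for the calls: active = compounds giving half or more protection of infected cells from virus-caused growth loss, again on retest; inactive = the rest.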 Where a SMILES comes first, the peptide text is derived from it. The star is where a group is joined. Trt = c1ccc(C(c2ccccc2)(c2ccccc2)*)cc1; OtBu = CC(C)(C)O*; X14 = CC(C)COC*

Tested on: CEM cells HIV-1 protection, formazan growth assay
Assay: NCI AIDS Antiviral Assay
Details: for pIC50: measured here: growth of uninfected CEM cells
Procedure, shortened: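 Human CEM cells, uninfected and HIV-1-infected, exposed to five drug concentrations; growth measured by soluble formazan assay and scored as percent protection from infection, with protecting compounds retested.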

Row | SMILES | outcome | pEC50 | pIC50
1 | O=C1C(c2ccc(Br)cc2)=[N+]([O-])c2ccccc21 | inactive | – | –
2 | Cc1nc2c(ccc3c(C)c(C)c(C)nc32)c(C)c1C | – | < 4.70 | 6.01
3 | CCC(c1ccc(N(C)C)cc1)C1NC(=S)NC1=O (stereo not given) | – | < 3.70 | 4.59
4 | O=C(NCCCCN(CCCNC(=O)C(F)(F)F)Cc1ccc2ccccc2c1)C(F)(F)F | – | < 3.70 | 4.46
5 | CN(NC(=O)CCCl)C1=NCCCCN1 | – | < 3.70 | < 3.70
6 | O=c1c(Cc2ccccc2)c(O)n(Cc2nc3ccccc3[nH]2)c(=S)n1-c1ccccc1 | – | < 3.70 | < 3.70
7 | Cc1c(/C=N/NC(=S)Nc2ccccc2)c(=O)n(-c2ccccc2)n1C | – | < 3.70 | < 3.70
8 | CNC1C(OC2C(OC3C(O)C(O)C(N=C(N)N)C(O)C3N=C(N)N)OC(C)C2(O)C=O)OC(CO)C(OC2OC(CO)C(O)C(O)C2O)C1O (stereo not given) | inactive | – | –
9 | OC12c3ccccc3C1(N1CCOCC1)CCCCC21OCCCO1 (stereo not given) | – | 3.77 | 3.53
10 | CCOc1cc(C2=NNc3n[nH]c(=S)n3N2)ccc1O | – | 3.82 | 3.48
11 | COc1ccc(C2CC(=O)c3c(cc(OC)c(O)c3OC)O2)cc1 (stereo not given) | – | < 3.70 | 4.49
12 | COc1ccc(OC)c(C(Cc2ccnc3ccccc23)Cc2ccnc3ccccc23)c1 | – | < 3.70 | 4.58
13 | Fc1ccc(NC(=S)Nc2ccccn2)cc1 | – | < 3.80 | 3.89
14 | CC(C(=O)O)c1ccc2oc(-c3ccc(Cl)cc3)nc2c1 (stereo not given) | – | < 3.70 | < 3.70
15 | N#CC(C#N)=CN1CCOCC1 | – | < 3.70 | < 3.70
16 | CCCCN(CCCC)C(=O)C(=O)C(C(=O)C(=O)OC)c1nc2ccccc2o1 (stereo not given) | – | < 4.47 | < 4.47
17 | O=C1c2sc(-c3ccc(Cl)cc3)cc2-n2cccc21 | – | < 3.82 | < 3.82
18 | COC(=O)c1c2oc3c(C(=O)OC)cccc3nc-2cc(N)c1=O | inactive | – | –
19 | CC(=O)c1ccc(NC(=O)/C(=N\NC(N)=O)C(C#N)CC(C)(C)C=O)cc1 (stereo not given) | – | < 3.31 | < 3.31
20 | COc1ccc(C2c3c(-c4ccccc4)nn(-c4ccccc4)c3Oc3ncn(N)c(=N)c32)cc1OC (stereo not given) | – | < 3.70 | 4.52
21 | COC(=O)/C=C/c1c(CC=C(C)C)ncn1C | – | < 3.27 | 5.46
22 | C=C1CC2(CCS(=O)(=O)c3ccccc32)OC1=O (stereo not given) | – | < 3.45 | 5.82

Row | SMILES | outcome | pEC50 | pIC50
23 | Cc1nc(N)nc(N)c1N1CCNCC1 | – | < 3.70 | < 3.70
24 | CCC(=O)NC(Nc1cccc(F)c1C)(C(F)(F)F)C(F)(F)F | – | < 3.70 | < 3.70
25 | CCOC(=O)c1ccc(CSc2ccc(N)cc2)cc1 | – | < 3.34 | 3.62
26 | CN1C(=O)N(C)C(O)C1O (stereo not given) | – | < 3.70 | < 3.70
27 | O=C(CC(=O)Nc1ccc(C(=O)O)cc1)Nc1ccc(C(=O)O)cc1 | – | < 3.70 | < 3.70
28 | O=C(O)C12CCCCC1CCCC2 (stereo not given) | – | < 3.43 | < 3.43
29 | C/C=C1/CN2CCC34C5=CC(=O)C(c6cc7c(cc6OC)N(C)C6=C(C(=O)OC)CC8(CC)CCCN9CCC67C98)=CC5=NC23CCC1C4C(=O)OC (stereo not given) | – | < 3.70 | 5.31
30 | O=C1c2ccccc2C(=O)C1(Cl)C1(S(=O)(=O)O)c2ccccc2-c2ccccc21 | inactive | – | –
31 | CC(C)=CC(=O)c1c(C(=O)O)nc2ccccc2[n+]1[O-] | inactive | – | –
32 | CCC1(c2ccccc2)Oc2ccccc2-n2cccc2C1=O (stereo not given) | – | 5.75 | 5.30
33 | CC1=[N+]([O-])c2ccccc2C(=O)C1=O | inactive | – | –
34 | O=C(OCc1ccccc1)N1N=NC2C1C1CC(OCc3ccccc3)(OCc3ccccc3)C2O1 (stereo not given) | – | < 4.83 | < 4.83
35 | NC12CC3CC(C1)CC(Cl)(C3)C2 | – | < 2.95 | < 2.95
36 | CCNC(=S)NNC(=O)c1ccccc1Nc1ccccc1C(=O)NNC(=S)NCC | inactive | – | 3.95
37 | COC(=O)c1cc(/C=C/C(=O)Cc2ccccc2)cn1S(=O)(=O)c1ccccc1 | – | < 3.70 | < 3.70
38 | COc1cc(C)cc2c1C(=O)C(Br)(Br)CC2 | – | < 5.70 | 6.02
39 | O=C(Cn1c2ccc(Br)cc2c2nc3ccccc3nc21)NCc1ccccc1 | – | < 4.00 | < 4.00
40 | COc1ccccc1NCc1nnc(CCCCCCCCc2nnc(CNc3ccccc3OC)o2)o1 | – | < 3.70 | < 3.70
41 | COc1cccc(N2C(=O)C3CC(CC(C)(C)C)c4c([nH]c5ccccc45)C3C2=O)c1 (stereo not given) | – | < 3.70 | 4.37
42 | Cc1occc1C(=S)Nc1ccc(Cl)c(/C=N/OC(C)(C)C)c1 | – | 6.71 | 4.83
43 | C=CCOC1=C2CC[C@H](O)[C@@]2(C)CCC1=O | inactive | – | –
44 | CC(C)COCSCC(NC(=O)CNC(=O)C(Cc1ccccc1)NC(=O)CNC(=O)C(N)CSC(c1ccccc1)(c1ccccc1)c1ccccc1)C(=O)NC(Cc1ccccc1)C(=O)NCC(=O)OC(C)(C)C (stereo not given) (H-C(Trt)GFGC(X14)FG-OtBu; configuration not given here) | – | < 4.62 | < 4.62

Row | SMILES | outcome | pEC50 | pIC50
45 | COc1ccc(OC)c(/C=C/[N+](=O)[O-])c1 | – | < 3.70 | 5.53
46 | CC1(C)C(=O)C(C)(C)C1=NNC(N)=S | – | < 3.38 | 3.58
47 | CS(=O)(=O)OCC1OC(n2ccc(NC(=O)c3ccccc3)nc2=O)CC1OS(C)(=O)=O (stereo not given) | – | < 3.70 | < 3.70
48 | CC(=O)/C(=C/c1ccccc1F)C(=O)c1ccccc1 | – | < 4.57 | < 4.57
49 | COC1=NC2=CC(=O)c3c(c(O)c(C)c4c3C(=O)C(C)(O/C=C/C(OC)C(C)C(OC(C)=O)C(C)C(O)C(C)C(O)C(C)/C=C/C=C\1C)O4)C2=O (stereo not given) | – | < 3.70 | 4.48
50 | O=c1c2cc3c(cc2[nH]c2ncccc12)OCO3 | – | < 3.70 | 3.84
51 | OC(CNc1ccccn1)c1ccccc1 (stereo not given) | – | < 3.70 | < 3.70
52 | O=C1OC(=O)C2C3C=CC(C12)C1C2C=CC2C31 (stereo not given) | inactive | – | –
53 | CCN1C(=O)/C(=C\c2coc3ccccc3c2=O)SC1=S | – | < 6.09 | < 6.09
54 | Oc1ccc(/C=C/c2cc(O)cc3c2C(c2cc(O)cc4c2C(c2cc(O)cc(O)c2)C(c2ccc(O)cc2)O4)C(c2ccc(O)cc2)O3)cc1 (stereo not given) | – | < 4.68 | 4.98
55 | O=[N+]([O-])c1ccc(Cl)cc1N/N=C/c1ccnc2ccccc12 | inactive | – | –
56 | Cc1cc(NS(=O)(=O)c2ccc(NC(=O)c3cccc4c(NNc5ccc(S(=O)(=O)N=C(N)N)cc5)c5ccccc5nc34)cc2)no1 | – | < 3.80 | 4.20
57 | CNC(=O)CN(CC(=O)O)C(=O)NC | – | < 2.91 | < 2.91
58 | CCOC(=O)[C@H]1Nc2c(cccc2[N+](=O)[O-])[C@H]2OCC[C@@H]12 | – | < 3.35 | < 3.35
59 | Cc1ccc(C2=CSC3=NCCN23)cc1Cl | – | < 3.70 | 4.03
60 | Nn1c(N=Nc2c(O)[nH]c3ccccc23)n[nH]c1=S | – | < 4.47 | < 4.47
61 | COc1ccc(OC)c2c1C1CCC(=O)N1CN2C(C)=O (stereo not given) | inactive | – | –
62 | O=C1CCC2(c3ccc(F)cc3)Nc3ncccc3N12 (stereo not given) | – | < 3.88 | < 3.88
63 | CCOC(=O)c1c(Br)c(-c2ccc(OC)cc2)c(Br)n1C | – | < 3.70 | 4.90
64 | CN(C)c1ccc(/C=C(\C#N)c2c(Br)cccc2Br)cc1 | – | < 3.70 | 5.38
65 | COc1ccccc1/C=N/Nc1nnc2c3ccccc3c3ncccc3c2n1 | – | < 3.70 | 3.86
66 | CC(C)(C)C(=O)CS(=O)(=O)O | – | < 3.70 | < 3.70

Row | SMILES | outcome | pEC50 | pIC50
67 | COc1ccc(N=N/C(=N/NC(=O)c2ccccc2)c2ccc(N(CCC#N)CCC#N)cc2C)cc1 | – | < 3.70 | 4.94
68 | CC(CCCOC(c1ccccc1)(c1ccccc1)c1ccccc1)OC(=O)Nc1ccccc1 (stereo not given) | – | < 4.54 | < 4.54
69 | O=C(NCP(=O)(c1ccccc1)c1ccccc1)OCc1ccccc1 | – | < 3.70 | < 3.70
70 | O=C(c1ccccc1)c1nc2ccc(Cl)cc2cc1C(Br)Br | – | < 5.48 | < 5.48
71 | COc1ccc(C23c4ccc(OC)cc4CC2(c2ccc([N+](=O)[O-])cc2)Cc2cc(OC)ccc23)cc1 (stereo not given) | – | < 3.70 | < 3.70
72 | CC1(C)OC(=O)C(=Cc2ccc(O)cc2)C(=O)O1 | – | < 3.00 | 3.26
73 | CN1N=CSC12C(=O)N(c1ccccc1)C(=O)N2c1ccccc1 (stereo not given) | inactive | – | –
74 | O=C1C=C(C2=C(C3=CC(=O)c4ccccc4C3=O)C(=O)c3ccccc3C2=O)C(=O)c2ccccc21 | – | < 4.00 | 5.86
75 | O=c1c2ccccc2c(=O)c2c1c1c(=O)c3ccccc3c(=O)c1c1c(=O)c3ccccc3c(=O)c21 | – | < 3.70 | < 3.70
76 | CCCCCCCCCCCCCCCCOP(=O)(O)OP(=O)(O)OCC1OC(n2cnc3c(N)ncnc32)C(O)C1O (stereo not given) | – | < 3.70 | 3.92
77 | CCCCCCCC(=O)[O-].CCCCCCCC(=O)[O-].N.N.N.N.[Co+3].[O-][Cl+3]([O-])([O-])[O-] | inactive | – | –
78 | CC(C)C(/C=C/c1ccc(Cl)cc1)=N\NC(=S)NN | – | < 3.70 | 4.92
79 | COc1cc(OC)c(Oc2cccc(OC)c2OC)c(OC)c1 | – | < 4.79 | < 4.79
80 | C/C(=N\O)C(CN(C)C)C(c1ccccc1)c1c(O)c2ccccc2oc1=O (stereo not given) | – | < 4.49 | 4.66
81 | O=C(O)/C(Cl)=C(\Cl)C(=O)Nc1ccccc1 | inactive | – | –
82 | COc1cc(/C=C2\SC(=S)N(C=C3C(=O)NC(=O)NC3=O)C2=O)cc(OC)c1OC | – | < 3.70 | 4.63
83 | CC(=S)N/C=C/c1c(C(=O)O)cc([N+](=O)[O-])cc1[N+](=O)[O-] | inactive | – | –
84 | Cn1c(=O)c(N=Nc2c(=O)n(C)c(=O)n3c2[nH]c2ccccc23)c2[nH]c3ccccc3n2c1=O | – | < 4.47 | < 4.47
85 | COc1cc2c3c([nH]c2c(OC)c1OC)CCN(Cc1ccccc1)C3 | – | < 3.70 | 4.18
86 | CCCCNC(=O)NNC(=O)c1cc(/C=C/c2cccc([N+](=O)[O-])c2)ncn1 | – | < 3.75 | < 3.75
87 | Cc1ccc2c(c1)-c1c3c(nn1C)-c1ccccc1SC3O2 (stereo not given) | – | < 4.63 | < 4.63
